Where a SMILES comes first, the peptide text is derived from it. [ ]: non-standard residue; d: D form. The star is where a group is joined. dNle = CCCC[C@@H](N)C(=O)O; Hexanoyl = CCCCCC(=O)*; Ahx = NCCCCCC(=O)O
Tests used:
Met = experiment: Inhibition of HGF-dependent Met phosphorylation in HEK293 cells; type: cell-based, human; settings: 10 min
Method: HEK293 cells were seeded in 6 well tissue culture plates and grown to 95% confluency in DMEM containing 10% FBS. The cells were serum deprived for 24 h prior to the treatment to reduce the basal levels of phospho-Met. Following serum starvation, cocktails comprised of vehicle and HGF with/without 6-AH analogs were prepared and pre-incubated for 30 min at room temperature. The cocktail was then added to the cells for 10 min to stimulate the Met receptor and downstream proteins. Cells were harvested using RIPA lysis buffer (Millipore; Billerica, Mass.) fortified with phosphatase inhibitor cocktails 1 and 2 (Sigma-Aldrich; St. Louis, Mo.). The lysate was clarified by centrifugation at 15,000 nx g for 15 min, protein concentrations were determined using the BCA total protein assay (Pierce), and then appropriate volumes of the lysates were diluted with 2× reducing Laemmli buffer and heated for ten min at 95° C. Samples containing identical amounts of protein were resolved using SDS-PAGE (Criterion, BioRad Laboratories), transferred to nitrocellulose, and blocked in Tris-buffered saline (TBS) containing 5% milk for 1 h at room temperature. The phospho-Met antibody were added to the blocking buffer at a final concentration of 1:1000 and incubated at 4° C. overnight with gentle agitation. The membranes were then washed several times with water and TBS ([…], 0.05% Tween-20), a 1:5000 dilution of horseradish-peroxidase conjugated goat anti-rabbit antiserum was added, and the membranes further incubated for 1 h at room temperature. Proteins were visualized using the Supersignal West Pico Chemiluminescent Substrate system (Pierce, Fenton, Mo.) and molecular weights determined by comparison to protein ladders (BenchMark, Invitrogen, and Kaleidoscope, BioRad). Film images were digitized and analyzed using a UVP phosphoimager.

in vivo = settings: male, Sprague-Dawley, rat, iv, 24 mg/kg
MDCK cells [1] = experiment: Inhibition of HGF-dependent scattering in MDCK cells; type: cell-based, canine; settings: 20 ng/ml HGF, 48 h
Method: (§1) MDCK cells were grown to 100% confluency on the coverslips in six-well plates and washed twice with PBS. The confluent coverslips were then aseptically transferred to new six well plates containing 900 μl serum free DMEM. Norleual, Hinge peptide, and/or HGF (20 ng/ml) were added to appropriate wells. Control wells received PBS vehicle. Plates were incubated at 37° C. with 5% CO2 for 48 hours. Media was removed and cells were fixed with methanol. Cells were stained with Diff-Quik Wright-Giemsa (Dade-Behring, Newark, Del.) and digital images were taken. Coverslips were removed with forceps and more digital images were captured. Pixel quantification of images was achieved using Image J and statistics were performed using Prism 5 and InStat v.3.05.
as §1, with “h.” for “hours.”, “v.3.05 (GraphPad; San Diego, Calif.).” for “v.3.05.”

[2] = rat, iv, 24 mg/kg
[3] = Blood stability studies (heparinized rat blood, 37° C.); type: in vitro ADME; settings: heparinized whole blood, single phase exponential decay, read-out: stability t1/2 in blood
MDCK cells [4] = experiment: HGF-dependent MDCK cell proliferation (MTT); type: cell-based, canine; settings: analog 10^−10M, 4 days
Method: 5000 MDCK cells were seeded into the wells of a 96 well plates in 10% FBS DMEM. To induce cellular quiescence, the cells were serum deprived for 24 h prior to initiating the treatments. Following serum starvation, 10 ng/ml HGF alone and with various concentrations of 6-AH analogs or PBS vehicle were added to the media. The cells were allowed to grow under these conditions for 4 days with a daily addition of 6-AH analogs. On the fourth day, 1 mg/ml of […] (MTT, Sigma-Aldrich) prepared in PBS was added to the cells and incubated for 4 h. Dimethyl sulfoxide diluted in a 0.01M glycine buffer was added to solubilize the cell membranes and the absorbance of reduced MTT in the buffer was quantitated at 590 nm using a plate reader (Biotek Synergy 2, Winooski, Vt.). HGF-dependent proliferation was determined by subtracting the basal proliferation (in the absence of HGF) from total proliferation rates in groups containing HGF.

[5] = system: B16-F10 murine melanoma cells; experiment: B16-F10 melanoma lung colony formation; type: in vivo; settings: daily IP 10 μg/kg/day and 100 μg/kg/day, 14 days, C57BL/6 mice
Method: Six to eight month old C57BL/6 mice were injected with 400,000 B16-F10 cells in 200 μl PBS by tail vein injection and subsequently received daily intraperitoneal injections of either D-Nle-X-Cys-NH—(CH2)5—CONH2 (10 μg/kg and 100 μg/kg) or a PBS vehicle control. Two weeks later, mice were anesthetized and lungs were perfused with PBS and removed. Photos were taken and lungs were solubilized in 1% Triton x-100, 20 mM Tris, 0.15 M NaCl, 2 mM EDTA, and 0.02% sodium azide. Samples were disrupted by sonication (Mixonix, Farmingdale, N.Y.) and spun. The supernatant was transferred to a 96 well plate and melanin absorbance at 410 nm was measured using a plate reader.

[6] = Stability of Dihexa in the blood (not shown); type: in vitro ADME

AUC(0-inf) (in vivo)	Vd (in vivo)	clearance (in vivo)	half-life (in vivo)	t½ (in vivo elimination half-life) ([2]; male, Sprague-Dawley)	KE ([2]; in vivo)	half-life [3]	Compound	inhibition of HGF-dependent Met auto-phosphorylation (Met)	inhibition of HGF-dependent MDCK cell scattering (MDCK cells [1])	inhibition of HGF-dependent MDCK cell proliferation (MDCK cells [4])	inhibition of B16-F10 melanoma lung colonization [5]	inhibition of B16-F10 melanoma lung colonization ([5]; listed as D-Nle-Cys-Ile-(6)-amino-hexanoic amide)	stable in the blood [6]
11500 ng·h/mL	104 ± 65 L/kg	58.3 ± 15.6 mL/min/kg	16.9 h	16.867 ± 6.523 h	0.001 ± 0.0002 min⁻¹	1.33 h	CCCC[C@@H](N)C(=O)N[C@@H](Cc1ccc(O)cc1)C(=O)N[C@H](C(=O)NCCCCCC(N)=O)[C@@H](C)CC (H-[dNle]YI[Ahx]-NH2)	able to block Met auto-phosphorylation	different from the HGF alone group but not different from the control group	marked inhibitory activity	–	–	–
–	–	–	–	–	–	–	CCCC[C@@H](N)C(=O)N[C@@H](CS)C(=O)N[C@H](C(=O)NCCCCCC(N)=O)[C@@H](C)CC [D-Nle-Cys-Ile-NH—(CH2)5—CONH2] (H-[dNle]CI[Ahx]-NH2)	able to block Met auto-phosphorylation	different from the HGF alone group but not different from the control group	marked inhibitory activity	radically prevented lung colonization	obvious reduction in melanoma colonies	–
–	–	–	–	–	–	–	CCCCCC(=O)N[C@@H](Cc1ccc(O)cc1)C(=O)N[C@H](C(=O)NCCCCCC(N)=O)[C@@H](C)CC [Dihexa, N-hexanoic-Tyr-Ile-(6)-aminohexanoic amide] (Hexanoyl-Tyr-Ile-[Ahx]-NH2)	–	–	–	–	–	over 5 hours
